What was measured:
[1] = cited from earlier work
[2] = biological test, activity compared with unmodified insulin

Substance	biological activity compared with unmodified insulin [2]	other results
Porcine insulin-Arg^B31 OH		activity relative to unmodified porcine insulin ([1]; according to Chance, Excerpta Medica Int. Congress Series No. 231): 62%
insulin-Arg^B31 -Arg^B32 -OH	approximately the same level as that of unmodified insulin	
insulin-Arg^B31 -OH	approximately the same level as that of unmodified insulin	
proinsulin: proinsulin, insulin precursor containing the C-peptide		biological activity as fraction of that of insulin ([1]; intact proinsulin vs insulin): about 1/8
